Experimental data: ChEMBL document CHEMBL2029265, “2-(Pyrrolidin-1-yl)ethyl-3,4-dihydroisoquinolin-1(2H)-one derivatives as potent and selective histamine-3 receptor antagonists” (J Med Chem, 2012)

Legend:
Histamine H3 receptor [1] = molecular target: Histamine H3 receptor (Homo sapiens, UniProt Q9Y5N1); test: Displacement of [3H]-(R)-alpha-methylhistamine from human H3 receptor expressed in HEK293T cells after 120 mins by scintillation counting; type: cell-based, HEK-293T
Histamine H3 receptor [2] = molecular target: Histamine H3 receptor (Rattus norvegicus, UniProt Q9QYN8); test: Displacement of [3H]-(R)-alpha-methylhistamine from rat H3 receptor expressed in HEK293T cells after 120 mins by scintillation counting; type: cell-based, HEK-293T
[3] = molecular target: Voltage-gated inwardly rectifying potassium channel KCNH2 (Homo sapiens, UniProt Q12809); test: Inhibition of human ERG by IonWorks assay
hERG (KCNH2) = hERG (KCNH2) (Homo sapiens, UniProt Q12809); test: Inhibition of human ERG at 10 uM by IonWorks assay
Histamine H1 receptor = Histamine H1 receptor (Homo sapiens, UniProt P35367); test: Binding affinity to H1 receptor
Histamine H2 receptor = Histamine H2 receptor (Homo sapiens, UniProt P25021); test: Binding affinity to H2 receptor
[4] = molecular target: T1, 5-hydroxytryptamine receptor 1A (Homo sapiens, UniProt P08908); test: Binding affinity to 5-HT1A receptor
T1 sequence (P08908 whole entry): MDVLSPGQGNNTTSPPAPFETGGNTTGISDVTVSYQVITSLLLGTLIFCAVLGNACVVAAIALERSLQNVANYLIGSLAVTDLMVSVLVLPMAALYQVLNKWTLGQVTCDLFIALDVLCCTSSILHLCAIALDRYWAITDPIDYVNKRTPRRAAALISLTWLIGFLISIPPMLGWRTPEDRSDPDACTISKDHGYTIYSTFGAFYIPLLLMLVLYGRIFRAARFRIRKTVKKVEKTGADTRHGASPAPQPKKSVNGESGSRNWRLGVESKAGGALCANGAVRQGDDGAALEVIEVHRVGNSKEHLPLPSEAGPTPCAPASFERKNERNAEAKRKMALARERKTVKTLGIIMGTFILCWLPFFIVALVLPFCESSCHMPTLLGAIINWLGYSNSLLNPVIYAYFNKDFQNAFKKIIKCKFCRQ

[5] = molecular target: 5-hydroxytryptamine receptor 2B (Homo sapiens, UniProt P41595); test: Binding affinity to 5-HT2B receptor
[6] = molecular target: 5-hydroxytryptamine receptor 6 (Homo sapiens, UniProt P50406); test: Binding affinity to 5-HT6 receptor
D(2) dopamine receptor = D(2) dopamine receptor (Homo sapiens, UniProt P14416); test: Binding affinity to D2 receptor
[7] = molecular target: T2, Alpha-2A adrenergic receptor (Homo sapiens, UniProt P08913); test: Binding affinity to alpha-2A receptor
T2 sequence (P08913 whole entry): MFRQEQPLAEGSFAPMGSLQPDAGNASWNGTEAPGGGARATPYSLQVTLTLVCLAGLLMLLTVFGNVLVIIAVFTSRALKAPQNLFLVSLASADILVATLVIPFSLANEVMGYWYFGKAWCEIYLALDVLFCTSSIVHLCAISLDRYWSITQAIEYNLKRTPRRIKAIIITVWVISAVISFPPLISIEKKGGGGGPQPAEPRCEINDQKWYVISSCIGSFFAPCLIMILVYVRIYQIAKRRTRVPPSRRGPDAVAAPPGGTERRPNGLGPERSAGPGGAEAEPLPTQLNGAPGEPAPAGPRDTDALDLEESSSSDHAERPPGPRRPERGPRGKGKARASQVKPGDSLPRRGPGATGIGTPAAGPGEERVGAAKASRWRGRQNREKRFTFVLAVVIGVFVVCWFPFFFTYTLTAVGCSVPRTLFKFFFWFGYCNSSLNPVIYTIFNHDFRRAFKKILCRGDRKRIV

[8] = molecular target: Sodium-dependent serotonin transporter (Homo sapiens, UniProt P31645); test: Binding affinity to 5-HT transporter
[9] = molecular target: Sodium-dependent dopamine transporter (Homo sapiens, UniProt Q01959); test: Binding affinity to DAT
Chain of Sodium-dependent dopamine transporter (Q01959 whole entry): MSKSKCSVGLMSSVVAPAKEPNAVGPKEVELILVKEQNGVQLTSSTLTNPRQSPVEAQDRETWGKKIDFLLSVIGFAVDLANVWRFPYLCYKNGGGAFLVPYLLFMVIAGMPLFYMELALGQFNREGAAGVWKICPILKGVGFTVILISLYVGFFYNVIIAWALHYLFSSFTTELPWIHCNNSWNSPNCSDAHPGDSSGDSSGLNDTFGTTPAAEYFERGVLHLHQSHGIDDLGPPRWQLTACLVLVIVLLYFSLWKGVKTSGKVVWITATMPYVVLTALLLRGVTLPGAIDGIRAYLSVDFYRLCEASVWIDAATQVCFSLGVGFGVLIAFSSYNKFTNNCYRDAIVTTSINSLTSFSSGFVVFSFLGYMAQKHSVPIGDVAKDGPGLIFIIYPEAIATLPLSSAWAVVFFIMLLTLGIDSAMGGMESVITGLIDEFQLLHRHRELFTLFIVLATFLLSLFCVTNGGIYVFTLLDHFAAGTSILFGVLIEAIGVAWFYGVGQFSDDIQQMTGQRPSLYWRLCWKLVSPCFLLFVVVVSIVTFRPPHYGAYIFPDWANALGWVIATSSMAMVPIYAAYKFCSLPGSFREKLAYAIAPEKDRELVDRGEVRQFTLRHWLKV

Chain of Histamine H3 receptor (Homo sapiens, UniProt Q9Y5N1) (Q9Y5N1 whole entry): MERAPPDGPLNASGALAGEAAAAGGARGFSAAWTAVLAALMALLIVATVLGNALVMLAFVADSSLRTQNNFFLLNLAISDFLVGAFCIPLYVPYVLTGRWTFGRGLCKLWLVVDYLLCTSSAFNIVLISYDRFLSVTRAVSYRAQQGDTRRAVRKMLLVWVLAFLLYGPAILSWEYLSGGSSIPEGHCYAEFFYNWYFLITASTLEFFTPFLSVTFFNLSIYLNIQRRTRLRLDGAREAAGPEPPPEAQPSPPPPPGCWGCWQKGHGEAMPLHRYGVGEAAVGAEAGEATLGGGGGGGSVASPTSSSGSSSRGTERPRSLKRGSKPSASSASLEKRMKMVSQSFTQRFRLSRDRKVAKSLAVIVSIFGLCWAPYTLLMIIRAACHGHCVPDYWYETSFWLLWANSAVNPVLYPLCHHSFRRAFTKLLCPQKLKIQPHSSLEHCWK
Chain of hERG (KCNH2) (Q12809 whole entry): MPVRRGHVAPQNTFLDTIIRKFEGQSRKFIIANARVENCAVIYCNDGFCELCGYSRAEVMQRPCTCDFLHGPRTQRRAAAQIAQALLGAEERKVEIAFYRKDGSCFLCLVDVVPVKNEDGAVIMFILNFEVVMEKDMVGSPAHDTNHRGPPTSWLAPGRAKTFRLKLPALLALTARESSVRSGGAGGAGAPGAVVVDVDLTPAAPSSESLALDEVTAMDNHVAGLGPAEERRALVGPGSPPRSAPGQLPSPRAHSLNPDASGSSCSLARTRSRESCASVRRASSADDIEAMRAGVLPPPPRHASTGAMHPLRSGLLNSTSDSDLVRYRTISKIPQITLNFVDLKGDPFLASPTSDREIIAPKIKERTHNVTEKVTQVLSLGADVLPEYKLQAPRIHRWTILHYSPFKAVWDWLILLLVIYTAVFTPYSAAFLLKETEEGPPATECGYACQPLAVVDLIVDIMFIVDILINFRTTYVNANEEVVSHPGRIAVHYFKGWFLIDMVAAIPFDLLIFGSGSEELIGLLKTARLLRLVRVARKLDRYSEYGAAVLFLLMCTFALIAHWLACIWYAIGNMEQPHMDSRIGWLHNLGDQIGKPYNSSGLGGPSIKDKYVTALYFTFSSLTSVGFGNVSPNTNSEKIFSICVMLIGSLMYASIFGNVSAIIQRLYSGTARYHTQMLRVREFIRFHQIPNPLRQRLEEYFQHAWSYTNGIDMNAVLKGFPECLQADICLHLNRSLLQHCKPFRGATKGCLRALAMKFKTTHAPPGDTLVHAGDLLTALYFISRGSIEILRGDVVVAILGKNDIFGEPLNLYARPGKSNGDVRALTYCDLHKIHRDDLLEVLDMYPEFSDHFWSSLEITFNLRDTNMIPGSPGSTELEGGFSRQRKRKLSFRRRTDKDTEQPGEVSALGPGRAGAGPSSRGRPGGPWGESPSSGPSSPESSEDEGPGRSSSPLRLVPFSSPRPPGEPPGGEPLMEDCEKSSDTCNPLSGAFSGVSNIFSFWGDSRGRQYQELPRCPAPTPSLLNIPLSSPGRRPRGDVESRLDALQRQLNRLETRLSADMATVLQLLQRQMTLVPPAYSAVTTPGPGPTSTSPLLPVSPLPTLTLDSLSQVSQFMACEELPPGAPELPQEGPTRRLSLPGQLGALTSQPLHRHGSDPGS
Chain of Voltage-gated inwardly rectifying potassium channel KCNH2 (Q12809 whole entry): as above
Chain of Histamine H3 receptor (Rattus norvegicus, UniProt Q9QYN8) (Q9QYN8 whole entry): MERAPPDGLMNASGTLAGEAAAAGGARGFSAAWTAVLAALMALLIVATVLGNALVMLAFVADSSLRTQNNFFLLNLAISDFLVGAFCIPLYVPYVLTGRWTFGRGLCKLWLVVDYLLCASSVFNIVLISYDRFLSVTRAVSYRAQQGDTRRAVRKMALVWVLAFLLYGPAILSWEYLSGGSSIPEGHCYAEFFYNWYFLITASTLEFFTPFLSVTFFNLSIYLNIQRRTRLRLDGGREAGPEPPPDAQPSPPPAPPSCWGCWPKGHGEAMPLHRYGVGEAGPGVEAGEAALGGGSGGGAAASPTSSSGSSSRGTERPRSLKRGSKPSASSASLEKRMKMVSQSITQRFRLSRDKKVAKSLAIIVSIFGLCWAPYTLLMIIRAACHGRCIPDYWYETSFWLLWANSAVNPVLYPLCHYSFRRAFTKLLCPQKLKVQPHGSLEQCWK
Chain of Histamine H1 receptor (P35367 whole entry): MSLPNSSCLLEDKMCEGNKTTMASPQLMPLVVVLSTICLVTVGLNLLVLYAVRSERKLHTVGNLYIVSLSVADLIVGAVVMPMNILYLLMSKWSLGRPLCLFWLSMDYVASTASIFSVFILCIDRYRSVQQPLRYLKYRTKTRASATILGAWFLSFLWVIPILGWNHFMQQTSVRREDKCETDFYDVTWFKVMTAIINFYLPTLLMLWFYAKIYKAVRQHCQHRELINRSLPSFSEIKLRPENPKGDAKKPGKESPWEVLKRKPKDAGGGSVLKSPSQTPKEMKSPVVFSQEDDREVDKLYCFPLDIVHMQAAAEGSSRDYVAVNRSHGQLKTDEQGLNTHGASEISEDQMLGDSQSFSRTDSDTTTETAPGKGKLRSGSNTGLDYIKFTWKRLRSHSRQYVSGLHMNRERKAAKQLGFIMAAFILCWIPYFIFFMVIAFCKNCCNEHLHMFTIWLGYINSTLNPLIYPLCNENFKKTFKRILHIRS
Chain of Sodium-dependent serotonin transporter (P31645 whole entry): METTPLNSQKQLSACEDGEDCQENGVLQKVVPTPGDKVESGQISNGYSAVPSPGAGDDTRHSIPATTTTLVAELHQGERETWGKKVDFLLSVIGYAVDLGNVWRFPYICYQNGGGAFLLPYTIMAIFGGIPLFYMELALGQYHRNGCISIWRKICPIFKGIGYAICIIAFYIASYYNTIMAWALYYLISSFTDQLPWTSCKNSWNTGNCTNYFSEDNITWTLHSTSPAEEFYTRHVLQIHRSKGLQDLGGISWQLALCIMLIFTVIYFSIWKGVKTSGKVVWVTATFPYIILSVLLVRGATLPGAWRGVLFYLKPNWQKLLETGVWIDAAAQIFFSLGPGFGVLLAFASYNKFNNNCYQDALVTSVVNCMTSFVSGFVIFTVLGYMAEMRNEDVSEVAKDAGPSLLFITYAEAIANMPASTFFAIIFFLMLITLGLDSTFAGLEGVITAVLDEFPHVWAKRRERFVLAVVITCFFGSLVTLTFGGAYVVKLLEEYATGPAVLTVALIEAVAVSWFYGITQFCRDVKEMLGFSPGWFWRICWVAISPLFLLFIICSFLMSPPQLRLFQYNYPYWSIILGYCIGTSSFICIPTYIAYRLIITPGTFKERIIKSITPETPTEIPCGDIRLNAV

Row | Compound | Ki (Histamine H3 receptor [1]) | Ki (Histamine H3 receptor [2]) | also measured
1 | O=C1c2ccc(-c3ccc(F)c(F)c3)cc2CCN1CCN1CCCC1 | 7.7 nM | 82 nM | –
2 | O=C(c1ccc(-c2ccc3c(c2)CCN(CCN2CCCC2)C3=O)cc1F)N1CCCC1 | 1.3 nM | – | IC50 [3]: 8800 nM
3 | C[C@@H]1CCCN1CCN1Cc2cc(-c3ccc(C#N)cc3)ccc2C1=O | 23.8 nM | – | inhibition at 10 µM (hERG (KCNH2)): 98%
4 | CCNC(=O)c1ccc(-c2ccc3c(c2)CCN(CCN2CCCC2)C3=O)cc1 | 1.2 nM | – | –
5 | N#Cc1cccc(-c2ccc3c(c2)CCN(CCN2CCCC2)C3=O)c1 | 3.4 nM | 73 nM | –
6 | O=C1c2ccc(-c3ccccc3F)cc2CCN1CCN1CCCC1 | 14.1 nM | 174 nM | –
7 | C[C@H]1CCCN1CCN1CCc2cc(-c3ccc(F)cc3)ccc2C1=O | 12.7 nM | 110 nM | –
8 | O=C(c1ccc(-c2ccc3c(c2)CCN(CCN2CCCC2)C3=O)cc1)C1CC1 | 6 nM | – | inhibition at 10 µM (hERG (KCNH2)): 65%
9 | CC(C)NC(=O)c1ccc(-c2ccc3c(c2)CCN(CCN2CCCC2)C3=O)cc1 | 1.9 nM | – | –
10 | C[C@@H]1CCCN1CCN1CCc2cc(Oc3ccc(C#N)cn3)ccc2C1=O | 1.2 nM | – | inhibition at 10 µM (hERG (KCNH2)): 89%
11 | O=C1c2ccc(-c3ccncc3)cc2CCN1CCN1CCCC1 | 7.8 nM | – | inhibition at 10 µM (hERG (KCNH2)): 93%
12 | CNC(=O)c1ccc(-c2ccc3c(c2)CCN(CCN2CCC[C@H]2C)C3=O)cc1 | 1 nM | – | IC50 [3]: 17000 nM
13 | O=C1c2ccc(-c3ccc(F)cc3)cc2CCN1CCN1CCCC1 | 11 nM | 86 nM | –
14 | N#Cc1ccc(-c2ccc3c(c2)CCN(CCCN2CCCCC2)C3=O)cc1 | 18 nM | 153 nM | –
15 | O=C(c1ccc(-c2ccc3c(c2)CCN(CCN2CCCC2)C3=O)c(F)c1)N1CCCC1 | 3.2 nM | – | IC50 [3]: 11300 nM
16 | C[C@H]1CCCN1C(=O)c1ccc(-c2ccc3c(c2)CCN(CCN2CCCC2)C3=O)cc1 | 1.7 nM | – | IC50 [3]: 12000 nM; Ki (Histamine H1 receptor): 7010 nM; Ki (Histamine H2 receptor): > 10000 nM; Ki [4]: 9040 nM; Ki [5]: > 10000 nM; Ki [6]: > 10000 nM; Ki (D(2) dopamine receptor): > 10000 nM; Ki [7]: > 3000 nM; Ki [8]: 390 nM; Ki [9]: > 10000 nM
17 | C[C@H]1CCCN1CCN1CCc2cc(-c3ccc(C#N)cc3)ccc2C1=O | – | 49 nM | –
18 | CNC(=O)c1ccc(-c2ccc3c(c2)CCN(CCN2CCCC2)C3=O)cc1 | 1.3 nM | – | –
19 | O=C(NC1CCCC1)c1ccc(-c2ccc3c(c2)CCN(CCN2CCCC2)C3=O)cc1 | 1.9 nM | – | IC50 [3]: 8200 nM; Ki (Histamine H1 receptor): 9620 nM; Ki (Histamine H2 receptor): > 10000 nM; Ki [4]: 8720 nM; Ki [5]: > 10000 nM; Ki [6]: > 10000 nM; Ki (D(2) dopamine receptor): > 10000 nM; Ki [7]: > 3000 nM; Ki [8]: 170 nM; Ki [9]: > 10000 nM
20 | C[C@@H]1CCCN1CCN1CCc2cc(Oc3ccc(C#N)cc3)ccc2C1=O | 0.6 nM | – | inhibition at 10 µM (hERG (KCNH2)): 95%
21 | O=C1c2ccc(-c3ccc(C(F)(F)F)cc3)cc2CCN1CCN1CCCC1 | 9.3 nM | 101 nM | –
22 | CNC(=O)c1ccc(-c2ccc3c(c2)CCN(CCN2CCCC2)C3=O)c(F)c1 | 1.7 nM | – | –
23 | O=C1c2ccc(-c3ccc(F)cc3F)cc2CCN1CCN1CCCC1 | 8.1 nM | 153 nM | –
24 | O=C(c1ccc(-c2ccc3c(c2)CCN(CCN2CCCC2)C3=O)cc1Cl)N1CCCC1 | 1.6 nM | – | IC50 [3]: 9300 nM
